Here are results for two compounds from publication PMC11981937 (Nature, 2025).

For orientation: EC50 means the midpoint of the concentration-response curve. Broadly, the EC90 is the concentration needed for an effect of 90%.

Like-named read-outs stand apart in the source and are kept apart here.

Assay type in all cases: cell-based
Test [1] concerns SARS-CoV-2_M:Q185K.
Test [2] has as its system SARS-CoV-2 M:A98D.
Test [3] concerns SARS-CoV-2_M:M91K.
Test [4] deals with SARS-CoV-2_M:L90W.
Test [5] has as its system SARS-CoV-2 Omicron BA.1 variant. Kind of test: microbe, parasite or virus in culture. Particulars: Severe acute respiratory syndrome coronavirus 2, SARS-CoV-2 Omicron B.1.1.529.
In test [6] the test system is SARS-CoV-2_M:W55F.
In test [7] the test system is SARS-CoV-2_M:A85S.
Test [8] relates to SARS-CoV-2 Delta variant. Kind of test: microbe, parasite or virus in culture. Conditions: Severe acute respiratory syndrome coronavirus 2; SARS-CoV-2 Delta B.1.617.1.
Test [9] concerns SARS-CoV-2_M:L29F.
In test [10] the test system is SARS-CoV-2 (B1 variant). Nature of the test: microbe, parasite or virus in culture. Particulars: Severe acute respiratory syndrome coronavirus 2, 48 h.
Setting [11] is: read-out: EC50, production of viral RNA.
[12] abbreviates: read-out: EC90, production of viral RNA.

For `C[C@H]1Cn2ncc(C(=O)Nc3cccc(C#N)c3)c2C(=O)N1c1ccc(C(F)(F)c2ccccc2)cc1` [JNJ-9676, (S)-N-(3-cyanophenyl)-5-(4-(difluoro(phenyl)methyl)phenyl)-6-methyl-4-oxo-4,5,6,7-tetrahydropyrazolo[1,5-a]pyrazine-3-carboxamide], the “Potency shift (EC50 fold change ± SD vs recombinant WT virus)” value in test [1] worked out at 5.55 ± 1.92 fold change; in test [2] it was 2.02 ± 0.58 fold change; in test [3], 10.03 ± 3.28 fold change; in test [4], 2.47 ± 1.48 fold change; in [6], 0.62 ± 0.26 fold change; in test [7] it was 0.64 ± 0.21 fold change. Besides, in test [9], the “Potency shift (EC50 fold change ± SD vs recombinant WT virus)” value came to 5.57 ± 0.42 fold change. Further, the EC50 was determined as 26 nM in [5], 14 nM in test [8] and 94 ± 3.4 nM in test [10] (setting [11]). Moreover, in [10] (setting [12]), the EC90 was 132 ± 36.7 nM.
Consider `CC(C)(C)[C@H](NC(=O)C(F)(F)F)C(=O)N1C[C@H]2[C@@H]([C@H]1C(=O)N[C@H](C#N)C[C@@H]1CCNC1=O)C2(C)C` [nirmatrelvir, reference compound], for which the EC50 in test [10] (read-out: EC50, RNA copy numbers (printed in Fig. 1c)) was 109 nM; in test [10] (setting [11]), 109 ± 55.6 nM. Also, the EC90 was 268 nM in test [10] (read-out: EC90, RNA copy numbers (printed in Fig. 1c)) and 268 ± 112 nM in test [10] (setting [12]).
